Laboratory results: PMC12040169 (PLOS Biology, 2025)

Assay: in vitro
Details: human, hela cells, % viability

Structure (SMILES) | viability at 28.5 h, 10 µM [%]
CS(=O)(=O)c1cccc(C(=O)Nc2cnc(-c3ccc(F)c(Cl)c3)c(-c3cccnc3)n2)c1 [CBK036779] | 101
O=C(CC1CC1)N1CCC2(CCN(Cc3ccccc3)C2)C1 (stereo not drawn) [CBK136825] | 93.9
CN(C)C(=O)c1cccc(-c2cnc3[nH]c(=O)n(Cc4ccc(Cl)cc4)c3n2)c1 [CBK064553] | 97.5
CN(Cc1ccco1)C(=O)NC1CCCc2c1cnn2CCO (stereo not drawn) [CBK306290] | 108
COc1ccccc1CCNC(=O)c1ncoc1-c1cccs1 [CBK282394] | 76.4
C=CCNc1nccnc1-c1ccncc1 [CBK036845] | 90.7
CCC(=O)N1C[C@@H](N(C)C)[C@H](c2cn(C)c3ccccc23)C1 [CBK285008] | 91.3
CC(C)Oc1ncc(C(=O)NCCCC(=O)O)cc1Cl [CBK305192] | 107
CCn1cc(CN2CCC(c3cc(Cc4cccc(OC)c4)cc(C)n3)CC2)c(C)n1 [CBK285671] | 89.2
CCC(c1ccc(F)cc1)N(C)C(=O)Cn1cccc(C(=O)NC2CCCCC2)c1=O (stereo not drawn) [CBK286114] | 96.4
CN(C)c1ccc(-c2cc(NCCc3ccncc3)ncn2)cc1 [CBK090849] | 94.2
O=C(Nc1cccc(Cn2cccn2)c1)c1csc2ccccc12 [CBK268123] | 93.2
COC(=O)c1c(NC(=S)Nc2cn(C)nc2C(N)=O)sc2c1CCCCC2 [CBK266849] | 93.4
COc1ccc(CC(=O)Nc2nc(OC)cnc2/C=C\c2ccccc2)cc1 [CBK145224] | 98.7
OC(COc1cccc2c1CCCC2)CN1CCC(O)(c2ccc(Br)cc2)CC1 (stereo not drawn) [CBK003584] | 72
CC(C)n1c(=O)n(CC(=O)NCc2ccccc2)c2cccnc21 [CBK283758] | 99.8
O=C(CCS(=O)(=O)Cc1ccccc1)Nc1cc(C(F)(F)F)ccc1Cl [CBK268399] | 108
Cc1ccsc1CN(Cc1nccn1C)CC(C)O (stereo not drawn) [CBK282976] | 92.3
Cc1ccc(S(=O)(=O)Nc2ccc3c(ccn3CCC3CCN(C(=O)OC(C)(C)C)CC3)c2)cc1Cl [CBK172990] | 94.6
CCOC(=O)c1sc(-c2ccc(C(C)(C)C)cc2)nc1O [CBK078538] | 92.3
O=C(COc1ccccc1)Nc1ccc2oc(-c3cccnc3)nc2c1 [CBK262959] | 92.1
O=C(O)/C(O)=C/C(=O)c1ccc(Cl)cc1 [CBK261841] | 111

Structure (SMILES) | viability at 28.5 h, 10 µM [%]
CCOc1cc(/C=C/c2nc(O)c([N+](=O)[O-])c(=O)[nH]2)ccc1OCC(N)=O [CBK267337] | 96
NCC(=O)Nc1ccc(F)c(F)c1 [CBK046313] | 103
COc1cc(NC(=O)c2ccco2)c(C(=O)O)cc1OC [CBK076926] | 91.6
O=C(c1ccccc1C(F)(F)F)N1CCC(n2c(=O)[nH]c3ccccc32)CC1 [CBK149706] | 97
CC(C)c1ccc(/C=C/C(=O)NCc2cccs2)cc1 [CBK149587] | 100
O=C(Nc1cccc(OCc2ccccc2)c1)c1cnc(-c2ccc(Cl)cc2)c(-c2ccco2)c1 [CBK037429] | 93.9
Cn1c(Cc2cccc3ccccc23)nnc1SCc1ccc([N+](=O)[O-])cc1 [CBK265898] | 93.6
OCCNCc1cc(Br)ccc1OCc1ccc(F)cc1 [CBK266421C] | 96
COc1ccc([C@@]23CC[C@@H](NC(=O)Nc4ccccc4C(F)(F)F)C[C@@H]2N(C)CC3)cc1OC [CBK036466T] | 106
Cc1ccc(-c2noc(CN(C(=O)CCc3ccccc3)C(C)C)n2)cc1 [CBK269313] | 99.3
CC(C)CN1CC(C(=O)NCc2ccccc2-n2ccnc2)CC1=O (stereo not drawn) [CBK282189] | 104
O=C(CN1C(=O)c2ccccc2C1=O)Nc1ccccc1C(=O)N1CCN(c2ccccc2)CC1 [CBK269251] | 118
O=C(CN1C2CCC1CC(O)(c1ccco1)C2)N1CCCC1 (stereo not drawn) [CBK284042] | 88.7
CC(C)(C)c1cc(CCC(=O)NNC(=O)c2ccccc2Cl)cc(C(C)(C)C)c1O [CBK268391] | 109
Cc1ccc(C2(CNC(=O)CCc3ccncc3)CCOCC2)cc1 [CBK281574] | 93.7
COc1cc(Nc2nc(-c3ccco3)cn3ccnc23)cc(OC)c1OC [CBK037413] | 95.2
O=C(Nc1nnc(C2=COCCO2)o1)c1cccc(Cl)c1 [CBK287417] | 83.5
CN1CC2(CCCN(Cc3noc(-c4ccccc4)n3)C2)OC1=O (stereo not drawn) [CBK306952] | 93
Cc1nn2c(C3CCCNC3)ccnc2c1-c1ccc(F)cc1 (stereo not drawn) [CBK284139] | 78.8
O=C1c2ccc(S(=O)(=O)c3ccc4c(c3)C(=O)N(c3nccs3)C4=O)cc2C(=O)N1c1nccs1 [CBK261335] | 105
Cc1ccc2c(c1)nc(-c1ccc(O)cc1)n2Cc1ccc(O)cc1 [CBK291226] | 77.4
O=C(Nc1ccc(OCc2ccccc2F)cc1)c1ccc(-n2cnnc2)cc1 [CBK285816] | 81.4

Structure (SMILES) | viability at 28.5 h, 10 µM [%]
O=C(O)c1ccc2[nH]c3c(c2c1)CCCC3 [CBK001252] | 90.9
COC[C@@H]1OC[C@@]2(C)C3CC[C@@H](O)[C@@H](CC(=O)N4CCCCC4)[C@]3(C)CC[C@H]2O1 (stereo partly drawn) [CBK289573] | 88.3
CCc1cc(CNS(=O)(=O)c2ccc(C)s2)on1 [CBK283066] | 99.6
CCOc1ccc(Nc2nc(-c3ccc(F)cc3)c(CC(=O)O)s2)cc1 [CBK296064] | 99.3
CC1Cc2cc(CCC(=O)N3CCCc4c(cnn4C)C3)ccc2O1 (stereo not drawn) [CBK282882] | 100
Cc1cccc(-c2ncc(C(=O)NCCc3c[nH]cn3)cc2-c2ccncc2)c1 [CBK036678] | 86.9
CC(=O)N1CCC(n2c(C3CC3)nc3sc(C)c(C)c3c2=O)CC1 [CBK282369] | 85.2
COCc1cc(=O)[nH]c(N2CCN(Cc3ccccc3)CC2)n1 [CBK270253] | 88.4
Cn1ccnc1C1(O)C2CCCC1CN(Cc1ccc(F)c(F)c1)C2 (stereo not drawn) [CBK285189] | 95.1
OC1(c2cccnc2F)CCN(Cc2cccc(F)c2F)CC1 [CBK284375] | 96.2
O=C(OCc1csc2ccc(Cl)cc12)N1CCOCC1 [CBK200164] | 94.7
c1ccc(NCCOc2nccnc2N2CCCC2)cc1 [CBK115814] | 87.9
Cn1cncc1CN(Cc1ccccn1)Cc1ccccc1Cl [CBK282129] | 105
CO/N=C\c1c(CO)cnc(C)c1O [CBK022776] | 98.4
COc1cccc(Nc2cc(-c3ccco3)ncn2)c1 [CBK090740] | 101
Cn1cc(CC(=O)Nc2ccc(N3CCNCC3)nc2)c2ccccc21 [CBK028275T] | 72.1
CCNc1cccnc1N(CC)C1CCN(C(=O)c2cc3cc4c(cc3[nH]2)OCO4)CC1 [CBK016815] | 111
CN1C2CCC1CC(OC(=O)CN1CCCCC1)C2 (stereo not drawn) [CBK278166C] | 109
CCCS(=O)(=O)NC1CCN(c2nc(C(F)(F)F)nc3[nH]cnc23)CC1 [CBK304587] | 105
O=C(CSc1nc2ccccc2s1)OCc1ccc([N+](=O)[O-])cc1 [CBK262547] | 91.1
O=[N+]([O-])c1cccc(/C=C/C=N/c2ccc3c(c2)S(=O)(=O)c2cc(/N=C/C=C/c4cccc([N+](=O)[O-])c4)ccc2-3)c1 [CBK261244] | 97.6
O=C(Nc1ccccc1)c1cc2sccc2s1 [CBK057696] | 87.9

Structure (SMILES) | viability at 28.5 h, 10 µM [%]
Cc1cccc(-n2c(C#N)c(O)c3ccccc32)c1C [CBK115319] | 106
CCC(NS(=O)(=O)c1cc(-n2cccn2)ccc1OC)C1CC(O)C1 (stereo not drawn) [CBK307103] | 106
Cc1cc(C(F)(F)F)nc(CCNC(=O)N(Cc2ccsc2)C2CC2)n1 [CBK307468] | 107
O=C1N=C(NCc2ccccc2F)OC12CCN(Cc1ccccc1)CC2 [CBK115688] | 96.2
COc1ccccc1-n1nc(-c2ccncc2)nc1C(C)NS(C)(=O)=O (stereo not drawn) [CBK306868] | 98
CC(C)(CNC(=O)Cn1cccc(C(=O)NC2CCCCC2)c1=O)c1ccccc1F [CBK286068] | 89.6
CCNC(=S)N[C@@H]1CC[C@@]2(c3ccc([N+](=O)[O-])cc3)CCN(CCc3ccccc3)[C@H]2C1 [CBK004677] | 90.5
CC(=O)N1Cc2cc(C)ccc2OC2(CCCN(CC3CC3)C2)C1 (stereo not drawn) [CBK285104] | 88.7
CCCCCc1c(C)nc(-c2ccccn2)nc1O [CBK017441] | 86.4
O=C(Cn1c(-c2ccccn2)nc2ccccc21)NCCN1CCOCC1 [CBK267214] | 95
CCOC(=O)C1CCCN(c2c(C#N)cnc3ccc(Cl)cc23)C1 (stereo not drawn) [CBK304405] | 85.8
CC(=O)c1ccc(-c2nc(NC(=O)c3cccc([N+](=O)[O-])c3)cnc2-c2ccc(F)c(Cl)c2)s1 [CBK036816] | 97.2
NC1(C(F)(F)F)Oc2cc(Cl)c(Cl)cc2O1 [CBK021805] | 88.5
CN1CCN(C(c2cccs2)c2nnnn2C(C)(C)C)CC1 (stereo not drawn) [CBK141702] | 91.9
O=C(Nc1cc(Oc2ccc(F)cc2)cc(Oc2cccnc2)c1)c1nn2c(C(F)(F)F)cc(-c3cccs3)nc2c1Cl [CBK262568] | 93.1
CCCc1cc(O)nc(SCC(=O)Nc2ccc(Cl)cc2Cl)n1 [CBK265147] | 83.7
O=C(NCc1ccc(Cl)c(Cl)c1)N1CCN(c2cc(C(F)(F)F)ccn2)CC1 [CBK156434] | 94.3
Nc1nc(OCCn2cccc2)cnc1-c1ccsc1 [CBK145162] | 92.1
O=C1N=C(NC2CCCCCC2)SC1CC(=O)N1CCOC12CCCCC2 (stereo not drawn) [CBK067355] | 94
CN1CCC(COC(=O)Nc2ccc3cc[nH]c3c2)CC1 [CBK200130] | 98.7

Same assay, conditions: human, hela cells, % viability, bulk resorufin, single well

Structure (SMILES) | viability at 28.5 h, 10 µM [%]
COc1cc(/C=N/O)ccc1Oc1ccc([N+](=O)[O-])cc1[N+](=O)[O-] [CBK261651] | 92.5
